# Target: human F508del-CFTR (Homo sapiens, UniProt P13569, DEL508-508)
# Assay: F508del-CFTR cell surface expression (corrector activity), DiscoveRx ß-galactosidase complementation chemiluminescence assay in recombinant U2OS cell line;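 note: U2OS cells co-expressing ProLink-tagged F508del-CFTR and a membrane-anchored enzyme acceptor, where more surface CFTR restores β-galactosidase activity measured by chemiluminescence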
# Settings: U2OS cells, 16h compound incubation; for EC50: EC50, F508del-CFTR cell surface expression, geomean of several measurements; for Emax: U2OS, in relation to the Emax of the corrector lumacaftor (=100%), arithmetic mean
# human F508del-CFTR, sequence (P13569 with tags, fused parts or gaps DEL508-508): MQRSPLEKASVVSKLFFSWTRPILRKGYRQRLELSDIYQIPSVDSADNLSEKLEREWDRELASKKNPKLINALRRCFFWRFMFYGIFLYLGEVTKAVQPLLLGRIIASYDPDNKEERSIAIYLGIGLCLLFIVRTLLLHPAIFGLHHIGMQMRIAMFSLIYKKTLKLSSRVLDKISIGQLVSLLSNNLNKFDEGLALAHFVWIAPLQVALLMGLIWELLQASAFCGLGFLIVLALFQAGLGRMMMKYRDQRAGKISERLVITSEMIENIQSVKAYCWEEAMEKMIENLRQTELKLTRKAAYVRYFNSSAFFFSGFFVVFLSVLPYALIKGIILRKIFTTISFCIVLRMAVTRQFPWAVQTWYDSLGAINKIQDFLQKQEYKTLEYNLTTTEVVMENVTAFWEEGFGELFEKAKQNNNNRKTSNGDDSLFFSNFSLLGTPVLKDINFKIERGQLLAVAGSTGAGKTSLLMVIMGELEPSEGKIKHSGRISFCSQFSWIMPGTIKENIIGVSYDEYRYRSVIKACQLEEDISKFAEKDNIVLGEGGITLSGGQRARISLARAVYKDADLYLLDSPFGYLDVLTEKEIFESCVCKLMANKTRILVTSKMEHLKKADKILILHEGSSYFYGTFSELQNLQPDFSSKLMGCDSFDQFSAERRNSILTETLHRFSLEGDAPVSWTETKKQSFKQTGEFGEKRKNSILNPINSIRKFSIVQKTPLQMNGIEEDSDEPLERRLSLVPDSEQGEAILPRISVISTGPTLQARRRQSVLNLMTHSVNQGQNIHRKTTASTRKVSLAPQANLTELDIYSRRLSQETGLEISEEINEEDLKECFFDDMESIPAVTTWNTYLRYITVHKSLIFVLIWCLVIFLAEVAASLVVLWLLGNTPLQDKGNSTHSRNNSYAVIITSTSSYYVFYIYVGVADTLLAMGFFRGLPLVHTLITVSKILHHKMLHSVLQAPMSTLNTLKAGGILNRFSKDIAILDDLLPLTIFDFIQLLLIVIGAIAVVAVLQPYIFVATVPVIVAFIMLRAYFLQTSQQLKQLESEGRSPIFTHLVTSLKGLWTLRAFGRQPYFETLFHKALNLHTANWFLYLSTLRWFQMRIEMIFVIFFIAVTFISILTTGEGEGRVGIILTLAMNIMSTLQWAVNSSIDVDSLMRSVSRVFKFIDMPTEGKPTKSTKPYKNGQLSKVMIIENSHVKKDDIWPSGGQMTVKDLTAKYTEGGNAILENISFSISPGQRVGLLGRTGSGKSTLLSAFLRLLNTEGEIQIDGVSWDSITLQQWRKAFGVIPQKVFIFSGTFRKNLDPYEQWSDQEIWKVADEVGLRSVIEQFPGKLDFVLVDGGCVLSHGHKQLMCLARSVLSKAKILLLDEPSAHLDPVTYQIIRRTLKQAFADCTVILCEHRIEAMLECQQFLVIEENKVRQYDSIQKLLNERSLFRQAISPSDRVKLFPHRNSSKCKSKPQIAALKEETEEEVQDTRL
EC50 [nM],Emax [%],Compound
245,498,"COc1noc(CCNC(=O)[C@@H]2CC(=O)N(C)[C@@H](CC(C)C)C(=O)N(C)[C@H](CC(F)(F)F)C(=O)N[C@H](Cc3ccccc3)COc3ccc4cnc(C)cc4c3C(=O)N2)n1 [Example 938, (3S,7S,10R,13R)-13-benzyl-7-isobutyl-N-(2-(3-methoxy-1,2,4-oxadiazol-5-yl)ethyl)-6,9,20-trimethyl-1,5,8,11-tetraoxo-10-(2,2,2-trifluoroethyl)-1,2,3,4,5,6,7,8,9,10,11,12,13,14-tetradecahydro-[1]oxa[4,7,10,14]tetraazacycloheptadecino[16,17-f]isoquinoline-3-carboxamide]"
737,288,"COc1noc(CCNC(=O)[C@@H]2CC(=O)N(C)[C@@H](CC(C)C)C(=O)N(C)[C@@H](CC(F)(F)F)C(=O)N[C@H](Cc3ccccc3)COc3ccc4cnc(C)cc4c3C(=O)N2)n1 [Example 939, (3S,7S,10S,13R)-13-benzyl-7-isobutyl-N-(2-(3-methoxy-1,2,4-oxadiazol-5-yl)ethyl)-6,9,20-trimethyl-1,5,8,11-tetraoxo-10-(2,2,2-trifluoroethyl)-1,2,3,4,5,6,7,8,9,10,11,12,13,14-tetradecahydro-[1]oxa[4,7,10,14]tetraazacycloheptadecino[16,17-f]isoquinoline-3-carboxamide]"
673,298,"COc1noc(CCNC(=O)[C@@H]2CC(=O)N(C)[C@@H](CC(C)C)C(=O)N(C)[C@@H](CC(F)(F)F)C(=O)N[C@H](Cc3ccccc3)COc3ccc4ncc(F)cc4c3C(=O)N2)n1 [Example 940, (3S,7S,10S,13R)-13-benzyl-20-fluoro-7-isobutyl-N-(2-(3-methoxy-1,2,4-oxadiazol-5-yl)ethyl)-6,9-dimethyl-1,5,8,11-tetraoxo-10-(2,2,2-trifluoroethyl)-1,2,3,4,5,6,7,8,9,10,11,12,13,14-tetradecahydro-[1]oxa[4,7,10,14]tetraazacycloheptadecino[16,17-f]quinoline-3-carboxamide]"
135,459,"COc1noc(CCNC(=O)[C@@H]2CC(=O)N(C)[C@@H](CC(C)C)C(=O)N(C)[C@H](CC(F)(F)F)C(=O)N[C@H](Cc3ccccc3)COc3ccc4ncc(F)cc4c3C(=O)N2)n1 [Example 941, (3S,7S,10R,13R)-13-benzyl-20-fluoro-7-isobutyl-N-(2-(3-methoxy-1,2,4-oxadiazol-5-yl)ethyl)-6,9-dimethyl-1,5,8,11-tetraoxo-10-(2,2,2-trifluoroethyl)-1,2,3,4,5,6,7,8,9,10,11,12,13,14-tetradecahydro-[1]oxa[4,7,10,14]tetraazacycloheptadecino[16,17-f]quinoline-3-carboxamide]"
194,460,"COc1noc(CCNC(=O)[C@@H]2CC(=O)N(C)[C@@H](CC(C)C)C(=O)N(C)[C@H](CC(F)(F)F)C(=O)N[C@H](Cc3ccccc3)COc3cc(C)nc(OC)c3C(=O)N2)n1 [Example 942, (3R,6R,9S,13S)-3-benzyl-9-isobutyl-16-methoxy-N-(2-(3-methoxy-1,2,4-oxadiazol-5-yl)ethyl)-7,10,18-trimethyl-5,8,11,15-tetraoxo-6-(2,2,2-trifluoroethyl)-2,3,4,5,6,7,8,9,10,11,12,13,14,15-tetradecahydropyrido[3,4-p][1]oxa[4,7,10,14]tetraazacycloheptadecine-13-carboxamide]"
240,471,"COc1nc(C)cc2c1C(=O)N[C@H](C(=O)NC[C@@H](O)c1nc(C3CC3)no1)CC(=O)N(C)[C@@H](CC(C)C)C(=O)N(C)[C@H](Cc1nc(C(F)(F)F)no1)C(=O)N[C@H](Cc1ccccc1)CO2 [Example 943, (3R,6R,9S,13S)-3-benzyl-N-((R)-2-(3-cyclopropyl-1,2,4-oxadiazol-5-yl)-2-hydroxyethyl)-9-isobutyl-16-methoxy-7,10,18-trimethyl-5,8,11,15-tetraoxo-6-((3-(trifluoromethyl)-1,2,4-oxadiazol-5-yl)methyl)-2,3,4,5,6,7,8,9,10,11,12,13,14,15-tetradecahydropyrido[3,4-p][1]oxa[4,7,10,14]tetraazacycloheptadecine-13-carboxamide]"
77,336,"CC(C)C[C@H]1C(=O)N(C)[C@H](Cc2nc(C(F)(F)F)no2)C(=O)N[C@H](Cc2ccccc2)COc2ccc3ncc(F)cc3c2C(=O)N[C@H](C(=O)NCCCOC(F)F)CC(=O)N1C [Example 944, (3S,7S,10R,13R)-13-benzyl-N-(3-(difluoromethoxy)propyl)-20-fluoro-7-isobutyl-6,9-dimethyl-1,5,8,11-tetraoxo-10-((3-(trifluoromethyl)-1,2,4-oxadiazol-5-yl)methyl)-1,2,3,4,5,6,7,8,9,10,11,12,13,14-tetradecahydro-[1]oxa[4,7,10,14]tetraazacycloheptadecino[16,17-f]quinoline-3-carboxamide]"
33,502,"COc1noc(CCNC(=O)[C@@H]2CC(=O)N(C)[C@@H](CC(C)C)C(=O)N(C)[C@H](Cc3nc(C(F)(F)F)no3)C(=O)N[C@H](Cc3ccccc3)COc3cc(C)nc(OC)c3C(=O)N2)c1F [Example 945, (3R,6R,9S,13S)-3-benzyl-N-(2-(4-fluoro-3-methoxyisoxazol-5-yl)ethyl)-9-isobutyl-16-methoxy-7,10,18-trimethyl-5,8,11,15-tetraoxo-6-((3-(trifluoromethyl)-1,2,4-oxadiazol-5-yl)methyl)-2,3,4,5,6,7,8,9,10,11,12,13,14,15-tetradecahydropyrido[3,4-p][1]oxa[4,7,10,14]tetraazacycloheptadecine-13-carboxamide]"
447,404,"Cc1cc(CCNC(=O)[C@@H]2CC(=O)N(C)[C@@H](CC(C)C)C(=O)N(C)[C@H](CC(F)F)C(=O)N[C@H](Cc3ccccc3)COc3ccc4ncc(F)cc4c3C(=O)N2)on1 [Example 946, (3S,7S,10R,13R)-13-benzyl-10-(2,2-difluoroethyl)-20-fluoro-7-isobutyl-6,9-dimethyl-N-(2-(3-methylisoxazol-5-yl)ethyl)-1,5,8,11-tetraoxo-1,2,3,4,5,6,7,8,9,10,11,12,13,14-tetradecahydro-[1]oxa[4,7,10,14]tetraazacycloheptadecino[16,17-f]quinoline-3-carboxamide]"
281,458,"COc1noc(CCNC(=O)[C@@H]2CC(=O)N(C)[C@@H](CC(C)C)C(=O)N(C)[C@H](CC(F)F)C(=O)N[C@H](Cc3ccccc3)COc3ccc4ncc(F)cc4c3C(=O)N2)n1 [Example 947, (3S,7S,10R,13R)-13-benzyl-10-(2,2-difluoroethyl)-20-fluoro-7-isobutyl-N-(2-(3-methoxy-1,2,4-oxadiazol-5-yl)ethyl)-6,9-dimethyl-1,5,8,11-tetraoxo-1,2,3,4,5,6,7,8,9,10,11,12,13,14-tetradecahydro-[1]oxa[4,7,10,14]tetraazacycloheptadecino[16,17-f]quinoline-3-carboxamide]"
61,501,"COc1cc(CCNC(=O)[C@@H]2CC(=O)N(C)[C@@H](CC(C)C)C(=O)N(C)[C@H](Cc3nc(C(F)(F)F)no3)C(=O)N[C@H](Cc3ccccc3)COc3ccnc(OC)c3C(=O)N2)on1 [Example 948, (3R,6R,9S,13S)-3-benzyl-9-isobutyl-16-methoxy-N-(2-(3-methoxyisoxazol-5-yl)ethyl)-7,10-dimethyl-5,8,11,15-tetraoxo-6-((3-(trifluoromethyl)-1,2,4-oxadiazol-5-yl)methyl)-2,3,4,5,6,7,8,9,10,11,12,13,14,15-tetradecahydropyrido[3,4-p][1]oxa[4,7,10,14]tetraazacycloheptadecine-13-carboxamide]"
113,518,"COc1noc(CCNC(=O)[C@@H]2CC(=O)N(C)[C@@H](CC(C)C)C(=O)N(C)[C@H](Cc3nc(C(F)(F)F)no3)C(=O)N[C@H](Cc3ccccc3)COc3ccnc(OC)c3C(=O)N2)n1 [Example 949, (3R,6R,9S,13S)-3-benzyl-9-isobutyl-16-methoxy-N-(2-(3-methoxy-1,2,4-oxadiazol-5-yl)ethyl)-7,10-dimethyl-5,8,11,15-tetraoxo-6-((3-(trifluoromethyl)-1,2,4-oxadiazol-5-yl)methyl)-2,3,4,5,6,7,8,9,10,11,12,13,14,15-tetradecahydropyrido[3,4-p][1]oxa[4,7,10,14]tetraazacycloheptadecine-13-carboxamide]"
201,464,"Cc1cc2c3c(ccc2cn1)OC[C@@H](Cc1ccccc1)NC(=O)[C@@H](CC(F)(F)F)N(C)C(=O)[C@H](CC(C)C)N(C)C(=O)C[C@@H](C(=O)NCCc1noc(C2CC2)n1)NC3=O [Example 950, (3S,7S,10R,13R)-13-benzyl-N-(2-(5-cyclopropyl-1,2,4-oxadiazol-3-yl)ethyl)-7-isobutyl-6,9,20-trimethyl-1,5,8,11-tetraoxo-10-(2,2,2-trifluoroethyl)-1,2,3,4,5,6,7,8,9,10,11,12,13,14-tetradecahydro-[1]oxa[4,7,10,14]tetraazacycloheptadecino[16,17-f]isoquinoline-3-carboxamide]"
165,405,"Cc1cc2c3c(ccc2cn1)OC[C@@H](Cc1ccccc1)NC(=O)[C@@H](CC(F)(F)F)N(C)C(=O)[C@H](CC(C)C)N(C)C(=O)C[C@@H](C(=O)NCCc1nc(C2CC2)no1)NC3=O [Example 951, (3S,7S,10R,13R)-13-benzyl-N-(2-(3-cyclopropyl-1,2,4-oxadiazol-5-yl)ethyl)-7-isobutyl-6,9,20-trimethyl-1,5,8,11-tetraoxo-10-(2,2,2-trifluoroethyl)-1,2,3,4,5,6,7,8,9,10,11,12,13,14-tetradecahydro-[1]oxa[4,7,10,14]tetraazacycloheptadecino[16,17-f]isoquinoline-3-carboxamide]"

# Source: patent US20240208992A1, “MACROCYCLES AS CFTR MODULATORS” (Idorsia Pharmaceuticals Ltd, priority 2021, published 2024)
